Assay [1] has as its system Rattus norvegicus. As to the kind of experiment: Antiinflammatory activity in rat assessed as inhibition of carrageenan-induced edema at 100 mg/kg. In kind it is functional.
Assay [2] relates to Rattus norvegicus. Description: Analgesic activity in rat assessed as inhibition of writhing at 100 mg/kg. It counts as functional.

As to `CCCCC1C(=O)N(c2ccccc2)N(c2ccccc2)C1=O` [PHENYLBUTAZONE], the inhibition in vivo at 100 mg/kg in the assay with Rattus norvegicus [1] was determined as 64%.

Take `CC1(C)CC[C@]2(C)CC[C@]3(C)C(=CC[C@@H]4[C@@]5(C)C[C@@H](O)[C@H](O)[C@@](C)(CO)[C@@H]5CC[C@]43C)[C@@H]2C1`: the inhibition in vivo at 100 mg/kg in the assay with Rattus norvegicus [1] was 28%; with Rattus norvegicus [2] it was 37%. For `CC(=O)Oc1ccccc1C(=O)O` [ASPIRIN], the inhibition in vivo at 100 mg/kg with Rattus norvegicus [2] was found to be 85%.

These data come from ChEMBL document CHEMBL1147314, “A pentacyclic triterpene with anti-inflammatory and analgesic activity from the roots of Commiphora merkeri” (1989).
